Results taken from patent publication US12122816B2, “Long acting peptide tyrosine tyrosine (PYY) analogs and methods of use” (Intarcia Therapeutics, Inc., priority 2020, dated 2024).
Starred links: 1 amine or outer side, 2 acyl side, 3 side chain; linkers in the order of their positions; H or OH if unused. Positions of bridges follow the written chain, without caps; N, C: chain ends. Residues, ends and D or L forms follow the SMILES beside them. Groups on a side chain read outwards from the residue. No end group written: not given here. *: point of attachment. C19 diacid = O=C(O)CCCCCCCCCCCCCCCCCC(=O)*; γGlu = O=C(O)[C@H](CCC(=O)[*:2])N[*:1]

Columns and labels:
[1] = Intravenous infusion pharmacokinetics to assess clearance (CL); assay type: in vivo, Sprague-Dawley rats; details: male, Sprague-Dawley, plasma, rat, 1-hour IV infusion, 0.033 mg/kg
Protocol: Peptides were dissolved in 0.05% Tween-20 in PBS (pH7.4) and administered as a 1-hour subcutaneous infusion to non-fasted male Sprague-Dawley rats (n=3 per group) at a final dose of 0.033 mg/kg via a cannula placed into the femoral vein. Formulations were administered at a rate of 0.150 mL/h/kg. […] Plasma was prepared by centrifugation and stored at −80° C. until analysis.
(§2) A 70 μL aliquot of each plasma sample was placed into to a 96-well plate. To each well was added 210 μL of 0.1% TFA in 2:1 ethanol:acetonitrile containing an appropriate internal standard. Plates were vortex mixed for 10 min at 1300 rpm, and then centrifuged for 10 min at 500×g. Supernatants (210 μL) were placed into a clean 96-well plate and evaporated under a nitrogen stream at 45° C. Residues were reconstituted in 80 μL of 20% acetonitrile (aq) containing 0.1% formic acid.
(§3) All calibration standards were prepared in control rat plasma containing K2EDTA and protease inhibitor cocktail.
(§4) Samples were injected onto a 2.1×50 mm reverse phase C18 analytical column, typically a Waters CORTECS UPLC C18+, 1.6 μm (Waters Corporation, Milford, MA) or similar. […] Typical flow rates were 550 μL/min. The column temperature was held constant at 45° C. Peptides were quantified by monitoring one or more product ions produced from a multiply charged parent ion.

[2] = Subcutaneous bolus injection pharmacokinetics to assess bioavailability (F); assay type: in vivo, Sprague-Dawley rats; details: male, Sprague-Dawley, plasma; rat, SC bolus 0.1 mg/kg
Protocol: Peptides were dissolved in sterile saline and administered to non-fasted male Sprague-Dawley rats (n=3 per group) at a dose of 0.1 mg/kg via a single bolus injection into the subcutaneous space between the scapulae. […] Plasma was prepared by centrifugation and stored at −80° C. until analysis.
as §2, §3, §4

human Y2 receptor = target: T1, human Y2 receptor (Homo sapiens, UniProt P49146); assay: NPY receptor functional assay (cAMP, HEK-CNG cells, ACTOne membrane potential dye); assay type: cell-based; details: NPY2R pEC50, HEK-CNG cells; standard PYY(3-36); species (human or rat) not given
T1 sequence (P49146 1-381): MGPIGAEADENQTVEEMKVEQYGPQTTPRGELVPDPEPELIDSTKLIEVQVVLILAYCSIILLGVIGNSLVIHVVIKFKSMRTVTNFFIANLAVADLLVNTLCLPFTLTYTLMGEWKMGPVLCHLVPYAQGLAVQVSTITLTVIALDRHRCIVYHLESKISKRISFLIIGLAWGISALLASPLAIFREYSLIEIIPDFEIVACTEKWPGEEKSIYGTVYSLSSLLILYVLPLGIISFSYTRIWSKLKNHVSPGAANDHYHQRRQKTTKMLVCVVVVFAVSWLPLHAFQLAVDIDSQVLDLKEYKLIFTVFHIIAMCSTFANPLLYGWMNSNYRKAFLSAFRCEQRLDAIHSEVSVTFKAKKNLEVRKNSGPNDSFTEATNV
In short: (§1)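 HEK-CNG cells stably expressing each human receptor; peptides added in triplicate for 50 minutes at room temperature, with agonism read as decreased isoproterenol-induced membrane potential dye signal (final/initial read).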

human Y4 receptor = human Y4 receptor (Homo sapiens, UniProt P50391); assay: as above; assay type: cell-based; details: standard PP, species (human or rat) not given
Chain of human Y4 receptor (P50391 whole entry): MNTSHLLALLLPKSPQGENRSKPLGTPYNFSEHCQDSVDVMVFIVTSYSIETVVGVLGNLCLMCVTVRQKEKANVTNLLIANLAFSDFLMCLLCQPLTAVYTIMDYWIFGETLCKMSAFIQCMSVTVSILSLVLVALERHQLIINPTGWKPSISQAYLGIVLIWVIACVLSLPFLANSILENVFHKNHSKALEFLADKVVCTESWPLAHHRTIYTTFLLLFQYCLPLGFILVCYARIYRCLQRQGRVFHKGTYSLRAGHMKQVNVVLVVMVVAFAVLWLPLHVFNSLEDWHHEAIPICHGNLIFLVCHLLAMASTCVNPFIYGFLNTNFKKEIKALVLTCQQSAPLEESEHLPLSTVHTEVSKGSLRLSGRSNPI
In short: as §1

[3] = Stability in water or saline (1 mg/ml) at 37° C., purity by LC/MS and HPLC; assay type: physicochemical; details: TFA salt form
[4] = Solubility in DI water at room temperature (visual inspection); assay type: physicochemical; details: TFA salt form
Protocol: The analog polypeptides described herein were tested for solubility in saline or in aqueous (DI water) at room temperature. Samples were visually inspected for clarity of the sample, any appearance of turbidity or haziness.

human Y5 receptor = target: T2, human Y5 receptor (Homo sapiens, UniProt Q15761); assay: NPY receptor functional assay (cAMP, HEK-CNG cells, ACTOne membrane potential dye); assay type: cell-based; details: NPY5R pEC50, HEK-CNG cells; standard NPY; species (human or rat) not given
T2 sequence (Q15761 1-445): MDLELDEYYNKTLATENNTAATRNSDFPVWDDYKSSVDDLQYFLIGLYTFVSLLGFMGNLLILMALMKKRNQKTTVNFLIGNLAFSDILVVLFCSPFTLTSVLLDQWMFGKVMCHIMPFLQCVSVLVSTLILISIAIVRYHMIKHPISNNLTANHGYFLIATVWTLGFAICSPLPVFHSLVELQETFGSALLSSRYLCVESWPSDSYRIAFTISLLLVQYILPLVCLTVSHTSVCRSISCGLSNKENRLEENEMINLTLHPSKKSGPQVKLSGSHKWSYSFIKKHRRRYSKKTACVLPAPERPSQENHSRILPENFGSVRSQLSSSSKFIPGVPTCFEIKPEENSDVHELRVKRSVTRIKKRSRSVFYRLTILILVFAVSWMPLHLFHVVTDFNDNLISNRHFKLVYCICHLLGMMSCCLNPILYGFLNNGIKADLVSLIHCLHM
In short: as §1

[5] = cited from earlier work

Compound: CC(C)C[C@H](NC(=O)[C@H](Cc1ccc(O)cc1)NC(=O)[C@H](Cc1c[nH]cn1)NC(=O)[C@H](CCCNC(=N)N)NC(=O)[C@H](C)NC(=O)[C@H](CC(=O)O)NC(=O)[C@H](C)NC(=O)[C@H](Cc1ccc(O)cc1)NC(=O)[C@H](Cc1ccc(O)cc1)NC(=O)[C@H](CCCNC(=N)N)NC(=O)[C@H](CC(N)=O)NC(=O)[C@H](Cc1c[nH]c2ccccc12)NC(=O)[C@H](CCC(=O)O)NC(=O)[C@H](CCC(=O)O)NC(=O)[C@@H]1CCCN1C(=O)[C@H](CO)NC(=O)[C@H](C)NC(=O)[C@H](CC(=O)O)NC(=O)[C@H](CCCCN)NC(=O)[C@H](CCCCNC(=O)CC[C@H](NC(=O)CC[C@H](NC(=O)CCCCCCCCCCCCCCCCCCC(=O)O)C(=O)O)C(=O)O)NC(=O)[C@@H]1CCCN1C(=O)[C@H](C)NC(=O)[C@H](CCC(=O)O)NC(=O)[C@@H]1CCCN1C(=O)[C@H](CCCCN)NC(=O)[C@@H]1CCCN1)C(=O)N[C@@H](CC(N)=O)C(=O)N[C@@H](Cc1c[nH]c2ccccc12)C(=O)N[C@@H](CC(C)C)C(=O)N[C@H](C(=O)N[C@@H](CCCNC(=N)N)C(=O)N[C@@H](CCC(N)=O)C(=O)N[C@@H](CCCNC(=N)N)C(=O)N(C)[C@@H](Cc1ccc(O)cc1)C(N)=O)[C@@H](C)O [Compound A7]
- clearance [1]: 0.326 mL/min/kg
- half-life ([1]; read-out: IV t1/2 (converted)): 6.44 h
- bioavailability [2]: 66.7%
- EC50 (human Y2 receptor): 0.2 nM
- NPY4R pEC50 (human Y4 receptor): inactive

Compound: CC(C)C[C@H](NC(=O)[C@H](CC(=O)O)NC(=O)[C@H](CCCCN)NC(=O)[C@H](Cc1ccc(O)cc1)NC(=O)[C@H](Cc1ccc(O)cc1)NC(=O)[C@H](CCCNC(=N)N)NC(=O)[C@H](CC(N)=O)NC(=O)[C@H](Cc1c[nH]c2ccccc12)NC(=O)[C@H](CCC(=O)O)NC(=O)[C@H](CCC(=O)O)NC(=O)[C@@H]1CCCN1C(=O)[C@H](CO)NC(=O)[C@H](C)NC(=O)[C@H](CC(=O)O)NC(=O)[C@H](CCCCNC(=O)CC[C@H](NC(=O)CC[C@H](NC(=O)CCCCCCCCCCCCCCCCCCC(=O)O)C(=O)O)C(=O)O)NC(=O)CNC(=O)[C@@H]1CCCN1C(=O)[C@H](CCCCN)NC(=O)[C@H](CCC(=O)O)NC(=O)[C@@H]1CCCN1C(=O)[C@H](CCCCN)NC(=O)[C@@H]1CCCN1)C(=O)N[C@@H](CCCNC(=N)N)C(=O)N[C@@H](Cc1c[nH]cn1)C(=O)N[C@@H](Cc1ccc(O)cc1)C(=O)N[C@@H](CC(C)C)C(=O)N[C@@H](CC(N)=O)C(=O)N[C@@H](Cc1c[nH]c2ccccc12)C(=O)N[C@@H](CC(C)C)C(=O)N[C@H](C(=O)N[C@@H](CCCNC(=N)N)C(=O)N[C@@H](CCC(N)=O)C(=O)N[C@@H](CCCNC(=N)N)C(=O)N[C@@H](Cc1ccccc1)C(N)=O)[C@@H](C)O [Compound A19]
- Stability (37° C./RT, T0: Mar. 25, 2020) [3]: 88.8
- solubility ([4]; DI water, read-out: Solubility (in Water, RT)): 59 mg/mL
- EC50 (human Y2 receptor): 0.0316 nM
- EC50 (human Y5 receptor): 2 nM

Compound: CC(C)C[C@H](NC(=O)[C@H](CC(=O)O)NC(=O)[C@@H]1CCCCNC(=O)CC[C@H](NC(=O)[C@H](Cc2c[nH]c3ccccc23)NC(=O)[C@H](CCC(=O)O)NC(=O)[C@H](CCCCN)NC(=O)[C@@H]2CCCN2C(=O)[C@H](CO)NC(=O)[C@H](C)NC(=O)[C@H](CC(=O)O)NC(=O)[C@H](CCCCNC(=O)CC[C@H](NC(=O)CC[C@H](NC(=O)CCCCCCCCCCCCCCCCCC(=O)O)C(=O)O)C(=O)O)NC(=O)CNC(=O)[C@@H]2CCCN2C(=O)[C@H](CCCCN)NC(=O)[C@H](CCC(=O)O)NC(=O)[C@@H]2CCCN2C(=O)[C@H](CCCCN)NC(=O)[C@@H]2CCCN2)C(=O)N[C@@H](CCCNC(=N)N)C(=O)N[C@@H](Cc2ccc(O)cc2)C(=O)N[C@@H](Cc2ccc(O)cc2)C(=O)N1)C(=O)N[C@@H](CCCNC(=N)N)C(=O)N[C@@H](Cc1c[nH]cn1)C(=O)N[C@@H](Cc1ccc(O)cc1)C(=O)N[C@@H](CC(C)C)C(=O)N[C@@H](CC(N)=O)C(=O)N[C@@H](Cc1c[nH]c2ccccc12)C(=O)N[C@@H](CC(C)C)C(=O)N[C@H](C(=O)N[C@@H](CCCNC(=N)N)C(=O)N[C@@H](CCC(N)=O)C(=O)N[C@@H](CCCNC(=N)N)C(=O)N[C@@H](Cc1ccccc1)C(N)=O)[C@@H](C)O [Compound A39] (H-PKPEKPGK([γGlu-γGlu-C19 diacid])DASPKEWERYYKDLRHYLNWLTRQRF-NH2; lactam 16-20; N-terminus assumed)
- Stability (37° C./RT, T0: Mar. 25, 2020) [3]: 95.9
- Solubility (in Water, RT) [4]: 16 mg/mL

Compound: CC(C)C[C@H](NC(=O)[C@H](CC(=O)O)NC(=O)[C@@H]1CCCCNC(=O)C[C@H](NC(=O)[C@H](Cc2c[nH]c3ccccc23)NC(=O)[C@H](CCC(=O)O)NC(=O)[C@H](CCCCN)NC(=O)[C@@H]2CCCN2C(=O)[C@H](CO)NC(=O)[C@H](C)NC(=O)[C@H](CC(=O)O)NC(=O)[C@H](CCCCNC(=O)CC[C@H](NC(=O)CC[C@H](NC(=O)CCCCCCCCCCCCCCCCCC(=O)O)C(=O)O)C(=O)O)NC(=O)CNC(=O)[C@@H]2CCCN2C(=O)[C@H](CCCCN)NC(=O)[C@H](CCC(=O)O)NC(=O)[C@@H]2CCCN2C(=O)[C@H](CCCCN)NC(=O)[C@@H]2CCCN2)C(=O)N[C@@H](CCCNC(=N)N)C(=O)N[C@@H](Cc2ccc(O)cc2)C(=O)N[C@@H](Cc2ccc(O)cc2)C(=O)N1)C(=O)N[C@@H](CCCNC(=N)N)C(=O)N[C@@H](Cc1c[nH]cn1)C(=O)N[C@@H](Cc1ccc(O)cc1)C(=O)N[C@@H](CC(C)C)C(=O)N[C@@H](CC(N)=O)C(=O)N[C@@H](Cc1c[nH]c2ccccc12)C(=O)N[C@@H](CC(C)C)C(=O)N[C@H](C(=O)N[C@@H](CCCNC(=N)N)C(=O)N[C@@H](CCC(N)=O)C(=O)N[C@@H](CCCNC(=N)N)C(=O)N[C@@H](Cc1ccccc1)C(N)=O)[C@@H](C)O [Compound A40]
- Stability (37° C./RT, T0: Mar. 25, 2020) [3]: 98.1
- Solubility (in Water, RT) [4]: 27 mg/mL

Compound: human amylin: 37-residue polypeptide hormone co-secreted with insulin from pancreatic β-cells (KCNTATCATQRLANFLVHSSNNFGAILSSTNVGSNTY; not fully specified (C-terminus, bridges); cysteine pairing not given here; UniProt P10997 34-70, looked up)
- half-life in serum [5]: about 13 minutes
